How the values were obtained:
Assay in all cases: relative viability (nuclei count vs DMSO), 5 days (fraction); higher = more cells survive
[1] = system: NCI-H838
Outline: (§1)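 The day after seeding in 1536-well plates, lung cancer cell lines were treated by pin tool with a single drug, or with a fixed anchor-drug dose together with five library-drug doses (not always all listed) in √10 steps. After 5 days, a combined fix-and-stain solution (final 0.05% Triton X-100, 1% formaldehyde, 1 ug/ml Hoechst) was added. Nuclei counted on 4× images gave relative viability as treated counts over vehicle counts, reported as the median of duplicate plates.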

[2] = system: NCI-H23
Outline: as §1

[3] = system: PC-3 [JPC-3]
Outline: as §1

[4] = system: NCI-H441
Outline: as §1

[5] = system: NCI-H1666
Outline: as §1

[6] = system: NCI-H647
Outline: as §1

[7] = system: NCI-H358
Outline: as §1

[8] = system: NCI-H322M
Outline: as §1

[9] = system: NCI-H727
Outline: as §1

[10] = system: SK-LU-1
Outline: as §1

[11] = system: NCI-H596
Outline: as §1

[12] = system: NCI-H661
Outline: as §1

[13] = system: NCI-H520
Outline: as §1

[14] = system: NCI-H1437
Outline: as §1

[15] = system: EKVX
Outline: as §1

[16] = system: NCI-H1975
Outline: as §1

[17] = system: NCI-H1792
Outline: as §1

[18] = system: LCLC-97TM1
Outline: as §1

[19] = system: NCI-H1915
Outline: as §1

[20] = system: NCI-H460
Outline: as §1

`CN1CCN(CCOc2cc(OC3CCOCC3)c3c(Nc4c(Cl)ccc5c4OCO5)ncnc3c2)CC1` [Saracatinib] + Cc1nc(NC(=O)N2CCC[C@H]2C(N)=O)sc1-c1ccnc(C(C)(C)C(F)(F)F)c1 [Alpelisib] (partner 2 µM) was tested, and the relative viability ([1]; first compound 0.02 µM) was 0.993, the relative viability ([1]; first compound 0.2 µM) was 0.929 and the relative viability ([1]; first compound 0.6325 µM) was 0.771. The relative viability ([1]; first compound 2 µM) was 0.803, the relative viability ([2]; first compound 0.02 µM) was 0.616 and the relative viability ([2]; first compound 0.6325 µM) was 0.752. For the same compound, the relative viability ([2]; first compound 2 µM) was 0.526, the relative viability ([3]; first compound 0.02 µM) was 0.998 and the relative viability ([3]; first compound 0.2 µM) was 0.956. For the same compound, the relative viability ([3]; first compound 0.6325 µM) was 0.876, the relative viability ([3]; first compound 2 µM) was 0.53 and the relative viability ([4]; first compound 0.02 µM) was 0.715. The relative viability ([4]; first compound 0.2 µM) was 0.544, the relative viability ([4]; first compound 0.6325 µM) was 1.03 and the relative viability ([4]; first compound 2 µM) was 0.772. It also gave a relative viability ([5]; first compound 0.02 µM) of 1.22, a relative viability ([5]; first compound 0.2 µM) of 0.936 and a relative viability ([5]; first compound 0.6325 µM) of 1.2. The relative viability ([5]; first compound 2 µM) was 0.837, the relative viability ([6]; first compound 0.02 µM) was 1.09 and the relative viability ([6]; first compound 0.2 µM) was 0.83. It also gave a relative viability ([6]; first compound 0.6325 µM) of 0.635, a relative viability ([6]; first compound 2 µM) of 0.36 and a relative viability ([7]; first compound 0.02 µM) of 0.839. For the same compound, the relative viability ([7]; first compound 0.2 µM) was 0.881, the relative viability ([7]; first compound 0.6325 µM) was 0.514 and the relative viability ([7]; first compound 2 µM) was 0.448. The relative viability ([8]; first compound 0.02 µM) was 0.761, the relative viability ([8]; first compound 0.2 µM) was 0.876 and the relative viability ([8]; first compound 0.6325 µM) was 0.822. The relative viability ([8]; first compound 2 µM) was 0.639, the relative viability ([9]; first compound 0.02 µM) was 0.558 and the relative viability ([9]; first compound 0.2 µM) was 0.461. For the same compound, the relative viability ([9]; first compound 0.6325 µM) was 0.334, the relative viability ([9]; first compound 2 µM) was 0.308 and the relative viability ([10]; first compound 0.02 µM) was 0.634. The relative viability ([10]; first compound 0.2 µM) was 0.673, the relative viability ([10]; first compound 0.6325 µM) was 0.44 and the relative viability ([10]; first compound 2 µM) was 0.297. It also gave a relative viability ([11]; first compound 0.02 µM) of 0.459, a relative viability ([11]; first compound 0.2 µM) of 0.424 and a relative viability ([11]; first compound 0.6325 µM) of 0.448. The relative viability ([11]; first compound 2 µM) was 0.403, the relative viability ([12]; first compound 0.02 µM) was 0.838 and the relative viability ([12]; first compound 0.2 µM) was 0.329. It also gave a relative viability ([12]; first compound 0.6325 µM) of 0.357, a relative viability ([12]; first compound 2 µM) of 0.377 and a relative viability ([13]; first compound 0.02 µM) of 0.901. It also gave a relative viability ([13]; first compound 0.2 µM) of 0.779, a relative viability ([13]; first compound 0.6325 µM) of 0.545 and a relative viability ([13]; first compound 2 µM) of 0.493. For the same compound, the relative viability ([14]; first compound 0.02 µM) was 0.987, the relative viability ([14]; first compound 0.2 µM) was 0.894 and the relative viability ([14]; first compound 0.6325 µM) was 0.845. The relative viability ([14]; first compound 2 µM) was 0.895, the relative viability ([15]; first compound 0.02 µM) was 0.897 and the relative viability ([15]; first compound 0.2 µM) was 0.551. The relative viability ([15]; first compound 0.6325 µM) was 0.671, the relative viability ([15]; first compound 2 µM) was 0.325 and the relative viability ([16]; first compound 0.02 µM) was 0.671. The relative viability ([16]; first compound 0.6325 µM) was 0.585, the relative viability ([16]; first compound 2 µM) was 0.367 and the relative viability ([17]; first compound 0.02 µM) was 0.706. The relative viability ([17]; first compound 0.2 µM) was 0.492, the relative viability ([17]; first compound 0.6325 µM) was 0.929 and the relative viability ([17]; first compound 2 µM) was 0.608. For the same compound, the relative viability ([18]; first compound 0.02 µM) was 0.198, the relative viability ([18]; first compound 0.2 µM) was 0.195 and the relative viability ([18]; first compound 0.6325 µM) was 0.357. The relative viability ([18]; first compound 2 µM) was 0.282, the relative viability ([19]; first compound 0.02 µM) was 1.04 and the relative viability ([19]; first compound 0.2 µM) was 0.552. It also gave a relative viability ([19]; first compound 0.6325 µM) of 1.07, a relative viability ([19]; first compound 2 µM) of 1.01 and a relative viability ([20]; first compound 0.02 µM) of 0.574. The relative viability ([20]; first compound 0.2 µM) was 0.347, the relative viability ([20]; first compound 0.6325 µM) was 0.289 and the relative viability ([20]; first compound 2 µM) was 0.175.
`Cc1csc(=NC2CCCCC2)n1/N=C/c1ccc(O)c(O)c1O` [MIM1] + Cc1nc(NC(=O)N2CCC[C@H]2C(N)=O)sc1-c1ccnc(C(C)(C)C(F)(F)F)c1 [Alpelisib] (partner 2 µM) was tested, and the relative viability ([1]; first compound 0.2 µM) was 0.974, the relative viability ([1]; first compound 0.6325 µM) was 1 and the relative viability ([1]; first compound 2 µM) was 0.83. The relative viability ([1]; first compound 6.325 µM) was 0.827, the relative viability ([1]; first compound 20 µM) was 1.09 and the relative viability ([2]; first compound 0.2 µM) was 0.653. For the same compound, the relative viability ([2]; first compound 2 µM) was 0.555, the relative viability ([2]; first compound 6.325 µM) was 0.606 and the relative viability ([2]; first compound 20 µM) was 0.203. For the same compound, the relative viability ([3]; first compound 0.2 µM) was 1.06, the relative viability ([3]; first compound 0.6325 µM) was 1.03 and the relative viability ([3]; first compound 2 µM) was 1.02. For the same compound, the relative viability ([3]; first compound 6.325 µM) was 0.884, the relative viability ([3]; first compound 20 µM) was 0.716 and the relative viability ([4]; first compound 0.2 µM) was 0.75. The relative viability ([4]; first compound 0.6325 µM) was 0.63, the relative viability ([4]; first compound 2 µM) was 0.655 and the relative viability ([4]; first compound 6.325 µM) was 0.594. The relative viability ([4]; first compound 20 µM) was 0.187, the relative viability ([5]; first compound 0.2 µM) was 0.827 and the relative viability ([5]; first compound 0.6325 µM) was 0.877. The relative viability ([5]; first compound 2 µM) was 0.815, the relative viability ([5]; first compound 6.325 µM) was 0.659 and the relative viability ([5]; first compound 20 µM) was 0.405. For the same compound, the relative viability ([6]; first compound 0.2 µM) was 1.23, the relative viability ([6]; first compound 0.6325 µM) was 1.14 and the relative viability ([6]; first compound 2 µM) was 1.12. The relative viability ([6]; first compound 6.325 µM) was 0.991, the relative viability ([6]; first compound 20 µM) was 0.213 and the relative viability ([7]; first compound 0.2 µM) was 0.829. It also gave a relative viability ([7]; first compound 0.6325 µM) of 0.881, a relative viability ([7]; first compound 2 µM) of 0.721 and a relative viability ([7]; first compound 6.325 µM) of 0.383. The relative viability ([7]; first compound 20 µM) was 0.274, the relative viability ([8]; first compound 0.2 µM) was 0.771 and the relative viability ([8]; first compound 0.6325 µM) was 0.737. The relative viability ([8]; first compound 2 µM) was 0.836, the relative viability ([8]; first compound 6.325 µM) was 0.74 and the relative viability ([8]; first compound 20 µM) was 0.834. For the same compound, the relative viability ([9]; first compound 0.2 µM) was 0.595, the relative viability ([9]; first compound 0.6325 µM) was 0.614 and the relative viability ([9]; first compound 2 µM) was 0.534. The relative viability ([9]; first compound 6.325 µM) was 0.482, the relative viability ([9]; first compound 20 µM) was 0.397 and the relative viability ([10]; first compound 0.2 µM) was 1. It also gave a relative viability ([10]; first compound 0.6325 µM) of 1.06, a relative viability ([10]; first compound 2 µM) of 1.26 and a relative viability ([10]; first compound 6.325 µM) of 0.87. For the same compound, the relative viability ([10]; first compound 20 µM) was 0.715, the relative viability ([11]; first compound 0.2 µM) was 0.491 and the relative viability ([11]; first compound 0.6325 µM) was 0.501. It also gave a relative viability ([11]; first compound 2 µM) of 0.525, a relative viability ([11]; first compound 6.325 µM) of 0.497 and a relative viability ([11]; first compound 20 µM) of 0.48. The relative viability ([12]; first compound 0.2 µM) was 0.728, the relative viability ([12]; first compound 0.6325 µM) was 0.847 and the relative viability ([12]; first compound 2 µM) was 0.655. The relative viability ([12]; first compound 6.325 µM) was 0.472, the relative viability ([12]; first compound 20 µM) was 0.305 and the relative viability ([13]; first compound 0.2 µM) was 0.902. The relative viability ([13]; first compound 0.6325 µM) was 0.9, the relative viability ([13]; first compound 2 µM) was 1.19 and the relative viability ([13]; first compound 6.325 µM) was 0.633. For the same compound, the relative viability ([13]; first compound 20 µM) was 0.41, the relative viability ([14]; first compound 0.2 µM) was 0.843 and the relative viability ([14]; first compound 0.6325 µM) was 0.935. The relative viability ([14]; first compound 2 µM) was 0.959, the relative viability ([14]; first compound 6.325 µM) was 0.592 and the relative viability ([14]; first compound 20 µM) was 0.289. It also gave a relative viability ([15]; first compound 0.2 µM) of 0.924, a relative viability ([15]; first compound 0.6325 µM) of 0.91 and a relative viability ([15]; first compound 2 µM) of 0.934. For the same compound, the relative viability ([15]; first compound 6.325 µM) was 0.575, the relative viability ([15]; first compound 20 µM) was 0.615 and the relative viability ([16]; first compound 0.2 µM) was 0.63. The relative viability ([16]; first compound 0.6325 µM) was 0.624, the relative viability ([16]; first compound 2 µM) was 0.569 and the relative viability ([16]; first compound 6.325 µM) was 0.391. The relative viability ([16]; first compound 20 µM) was 0.313, the relative viability ([17]; first compound 0.2 µM) was 0.67 and the relative viability ([17]; first compound 0.6325 µM) was 0.654. It also gave a relative viability ([17]; first compound 2 µM) of 0.694, a relative viability ([17]; first compound 6.325 µM) of 0.433 and a relative viability ([17]; first compound 20 µM) of 0.599. It also gave a relative viability ([18]; first compound 0.2 µM) of 0.255, a relative viability ([18]; first compound 0.6325 µM) of 0.258 and a relative viability ([18]; first compound 2 µM) of 0.207. It also gave a relative viability ([18]; first compound 6.325 µM) of 0.26, a relative viability ([18]; first compound 20 µM) of 0.129 and a relative viability ([19]; first compound 0.2 µM) of 1.14. For the same compound, the relative viability ([19]; first compound 0.6325 µM) was 1.04, the relative viability ([19]; first compound 2 µM) was 1.02 and the relative viability ([19]; first compound 6.325 µM) was 0.773. The relative viability ([19]; first compound 20 µM) was 0.277, the relative viability ([20]; first compound 0.2 µM) was 0.43 and the relative viability ([20]; first compound 0.6325 µM) was 0.549. For the same compound, the relative viability ([20]; first compound 2 µM) was 0.456, the relative viability ([20]; first compound 6.325 µM) was 0.204 and the relative viability ([20]; first compound 20 µM) was 0.0234.

Reference: the supplement of paper PMC10307832
